Reference: PMC11678245, “The Molecular Basis of the Intrinsic and Acquired Resistance to Azole Antifungals in Aspergillus fumigatus” (Journal of Fungi, 2024)
Values joined by “and” are separate entries in the source; they are usually repeats but may differ in a detail not shown here. Equal entries are not always repeated. Where two headings read alike, the source gives them in different places.

Tests used:
[1] = molecular target: T1, AfCYP51B-6×His (Aspergillus fumigatus, UniProt E9QY26); test: Type II binding of azole drugs (difference spectra); conditions: for λpeak (type II difference spectrum) / λtrough (type II difference spectrum) / ΔAmax (type II binding) / Kd: 1 μM enzyme; for ΔAmax (type II binding) / Kd: Hill equation; for Hill Number / Kd: type II binding
T1 sequence (E9QY26 1-524): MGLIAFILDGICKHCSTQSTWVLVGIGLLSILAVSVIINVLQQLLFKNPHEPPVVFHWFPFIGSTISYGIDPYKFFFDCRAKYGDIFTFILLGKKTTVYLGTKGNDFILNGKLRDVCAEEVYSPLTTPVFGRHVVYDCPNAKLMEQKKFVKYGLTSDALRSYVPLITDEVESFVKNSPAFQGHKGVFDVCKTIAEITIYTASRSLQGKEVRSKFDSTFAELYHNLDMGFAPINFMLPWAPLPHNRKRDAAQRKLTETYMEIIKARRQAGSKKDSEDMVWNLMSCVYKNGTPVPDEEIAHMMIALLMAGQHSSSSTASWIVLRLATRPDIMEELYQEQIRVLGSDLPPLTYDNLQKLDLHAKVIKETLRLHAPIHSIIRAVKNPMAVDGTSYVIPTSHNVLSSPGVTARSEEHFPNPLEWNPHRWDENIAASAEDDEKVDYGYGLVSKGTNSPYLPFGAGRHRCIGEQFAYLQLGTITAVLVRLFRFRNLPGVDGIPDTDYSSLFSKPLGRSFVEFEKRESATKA
Protocol: (§1) The concentration of AfCYP51A and AfCYP51B, purified using Ni-NTA affinity chromatography and used for the spectrophotometric type I and type II binding assays, was calculated using an extinction co-efficient of λ417nm = 117 mM^−1 cm^−1 applied to the absolute absorption spectrum of the preparations. In addition, the amount of “active” cytochrome P450 enzyme was determined using the carbon monoxide (CO) binding spectra of these preparations.
(§2) Type II binding difference spectra were obtained using 1 μM of affinity-purified CYP51 enzymes. VCZ, PCZ, VT-1161, DCZ, and MCF working solutions were prepared in DMSO, while FLC was prepared in Milli-Q water. Azole drugs were added to the sample cuvette, and corresponding amounts of DMSO or Milli-Q water were added to the reference cuvette. Drug binding curves were plotted using the difference spectrum peak and trough detected in the range of 410–425 nm. Dissociation constants (Kd) were determined by nonlinear regression (Levenberg–Marquardt algorithm) of the difference in absorbance between the peak and trough against the azole concentration using a rearrangement of the Morrison equation or the Hill equation [7]. GraphPad Prism 9.2.0 software was used to identify the best fit for the data.

[2] = molecular target: AfCYP51A-6×His (Aspergillus fumigatus, UniProt Q4WNT5); test: as above; conditions: for λpeak (type II difference spectrum) / λtrough (type II difference spectrum) / ΔAmax (type II binding) / Hill Number / Kd: AfCYP51A; for λpeak (type II difference spectrum) / λtrough (type II difference spectrum) / ΔAmax (type II binding) / Kd: 1 μM enzyme; for ΔAmax (type II binding) / Kd: Hill equation
Protocol: as §1, §2

[3] = tested on: S. cerevisiae strain BRE (AfCyp51B-6×His, AfCprA2, AfErg6-FLAG); test: MIC80 susceptibility, strain BRE; format: cell-based, Saccharomyces cerevisiae; conditions: for MIC80: strain BRE, ± SD
Protocol: The susceptibilities of S. cerevisiae strains to antifungal drugs were determined as minimum growth inhibitory concentration (MIC) values in 200 μL SD pH 6.8 [24]. Serial 2-fold dilutions of 100 μL of azole or control drugs in SD pH 6.8 were prepared in a 96-well microtiter plate. A portion of a 2 mL SD pH 6.8 overnight culture of the test strain was inoculated into 3 mL fresh SD pH 6.8 and incubated for 4 to 6 h at 30 °C to generate logarithmic-phase cells. These cells were then diluted with fresh SD pH 6.8 to OD600nm = 0.01 (3 × 10^4 CFU), and 100 μL of this cell suspension was added to microtiter plate wells. Cell growth after 48 h incubation at 30 °C with shaking at 200 rpm was determined at 600 nm using a BioTek™ Synergy™ 2 multi-Mode microplate reader controlled using Gen5™ Data Analysis Software version 3.16.10 (BioTek Instruments, Winooski, VT, USA). MIC80 values (80% growth inhibition in the presence of the test drug compared with the untreated control) for each yeast construct were determined as technical triplicates repeated three times for three separate clones.

[4] = tested on: S. cerevisiae strain ARE (Y2746); test: Sterol analysis of recombinant yeast strain (GC-MS); format: cell-based, Saccharomyces cerevisiae; conditions: VCZ at concentration slowing growth rate by ~50%, 20% without VCZ
Protocol: (§3) Yeast strains grown overnight in SD medium pH 6.8 were inoculated in 20 mL fresh medium and grown to OD600nm = 0.5. The cultures were then treated with VCZ at a concentration that reduced the rate of cell growth by ~50%. Untreated control cultures were harvested by centrifugation after 8 h at a cell density of ~2.5, and VCZ-treated cultures were harvested after ~16 h at a similar cell density. The harvested cells were prepared for sterol extraction and analysis using the method described by Müller et al..

[5] = tested on: S. cerevisiae strain BRE (Y2747); test: as above; format: cell-based, Saccharomyces cerevisiae; conditions: VCZ at concentration slowing growth rate by ~50%, ~1% without VCZ
Protocol: as §3

[6] = Saccharomyces cerevisiae, Table 2, SD pH 6.8, 48 h, 30 °C, read-out: MIC80

Chain of AfCYP51A-6×His (Q4WNT5 whole entry): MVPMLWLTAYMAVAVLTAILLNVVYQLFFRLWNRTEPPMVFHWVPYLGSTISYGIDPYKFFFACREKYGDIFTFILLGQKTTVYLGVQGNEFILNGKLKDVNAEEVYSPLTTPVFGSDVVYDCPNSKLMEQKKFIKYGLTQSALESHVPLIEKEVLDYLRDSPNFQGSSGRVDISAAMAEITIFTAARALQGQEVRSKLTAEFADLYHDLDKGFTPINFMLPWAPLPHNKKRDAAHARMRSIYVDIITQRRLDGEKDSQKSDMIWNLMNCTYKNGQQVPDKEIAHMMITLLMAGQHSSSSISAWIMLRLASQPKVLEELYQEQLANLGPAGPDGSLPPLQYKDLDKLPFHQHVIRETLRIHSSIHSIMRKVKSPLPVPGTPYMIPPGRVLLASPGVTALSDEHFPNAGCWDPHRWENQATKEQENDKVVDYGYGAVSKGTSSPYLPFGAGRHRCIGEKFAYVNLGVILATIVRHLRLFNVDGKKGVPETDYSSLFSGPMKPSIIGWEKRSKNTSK

| Compound | λpeak (type II difference spectrum) [1] [nm] | λtrough (type II difference spectrum) [1] [nm] | ΔAmax (type II binding) [1] | Hill Number [1] | Kd [1] [µM] | λpeak (type II difference spectrum) [2] [nm] | λtrough (type II difference spectrum) [2] [nm] | ΔAmax (type II binding) [2] | Hill Number ([2]; type II binding) | Kd ([2]; type II binding) | Kd of AfCYP51A relative to AfCYP51B ([2]; type II binding) [fold] | MIC80 [3, 6] [µM] | MIC80 ([3]; Saccharomyces cerevisiae, Table 3, read-out: MIC80) [µM] | MIC80 ([3]; Table 2, SD pH 6.8, 48 h, 30 °C) [µM] | eburicol content in the presence of VCZ [4] | eburicol content in the presence of VCZ [5] | MIC80 of strain BRE relative to strain ADΔΔ ([3]; higher) |
| --- | --- | --- | --- | --- | --- | --- | --- | --- | --- | --- | --- | --- | --- | --- | --- | --- | --- |
| OC(Cn1cncn1)(Cn1cncn1)c1ccc(F)cc1F [FLC, fluconazole] | 425 | 407 | 0.09 | 1.75 | 1.43 ± 0.07 | 422 | 383 | 0.10 | 0.72 | 3.23 ± 1.13 µM | 2.26 | 10 ± 1.4 | 3.8 ± 0.9 | 10.0 ± 1.4 |  |  |  |
| C[C@@H](c1ncncc1F)[C@](O)(Cn1cncn1)c1ccc(F)cc1F [VCZ, voriconazole] | 427 | 410 | 0.03 | 1.12 | 0.8 ± 0.31 | 422 | 392 | 0.05 | 1.10 | 1.5 µM and 1.52 µM |  | 0.21 ± 0.02 |  |  | 25 % of total sterol | ~ 20 % of total sterol | 4- to 5 fold |
